Here are results for two compounds from patent US20100130493A1, “COMBINATION OF VEGF RECEPTOR TYROSINE KINASE INHIBITORS FOR TREATMENT OF CANCER” (priority 2002, published 2010).

Structures are written as SMILES.

Test [1] relates to human A431 vulval carcinoma tumour xenografts. The test is described as follows: Human A431 vulval carcinoma tumour xenografts in nude mice. Conditions: A431 xenograft; for Number of tumours regressing after 31 days of treatment (treatment from day 28 to day 59): tumour volume at day 59 smaller than pre-treatment value on day 28, regressing/total.
Experimental: 5×10^6 A431 tumour cells in 0.1 ml of serum free Dulbecco's Modified Eagle's Medium (DMEM) were injected subcutaneously (s.c.) into the flank of each athymic (nu/nu genotype) mouse. Eleven days after inoculation tumours were excised and dissected to generate cubic tumour fragments of 0.5-1 mm^3, which were implanted into further nude mice for a therapy experiment. Tumour volumes were assessed by bilateral Vernier caliper measurement and, taking length to be the longest diameter across the tumour and width the corresponding perpendicular, calculated using the formula (length×width)×the square root of (length×width)×(π/6). […] In addition, the number of tumour regressions following 31 days of treatment was ascertained (tumour regression being evident if the tumour volume at day 59 was smaller than the pre-treatment value on day 28).
Test [2] deals with human LoVo colon tumour xenografts. The test is described as follows: Human LoVo colon tumour xenografts in nude mice. The conditions noted are these: LoVo xenograft, p.o. daily days 0-14, ZD6474 6 mg/kg/day, ZD1839 50 mg/kg/day, or combination, versus control.
Experimental: 10^7 LoVo tumour cells in 0.1 ml of serum free Dulbecco's Modified Eagle's Medium (DMEM) were injected subcutaneously (s.c.) into the flank of each athymic (nu/nu genotype) mouse. Tumor volumes were assessed by bilateral Vernier caliper measurement and, taking length to be the longest diameter across the tumor and width the corresponding perpendicular, calculated using the formula (length×width)×the square root of (length×width)×(π/6). […] A one-tailed two-sample t-test was used to evaluate the significance of tumour growth inhibition.

Turning to `COc1cc2ncnc(Nc3ccc(F)c(Cl)c3)c2cc1OCCCN1CCOCC1` [ZD1839, N-(3-chloro-4-fluorophenyl)-7-methoxy-6-(3-morpholinopropoxy)quinazolin-4-amine, reference compound], the “Number of tumours regressing after 31 days of treatment (treatment from day 28 to day 59)” value in test [1] is 3/9.

For `COc1cc2c(Nc3ccc(Br)cc3F)ncnc2cc1OCC1CCN(C)CC1` [ZD6474, 4-(4-bromo-2-fluoroanilino)-6-methoxy-7-(1-methylpiperidin-4-ylmethoxy)quinazoline], in test [1] (nude mice, p.o., ZD6474 50 mg/kg/day, ZD1839 50 mg/kg/day, or combination, assessed day 49 versus control), the “Mean % Inhibition of tumour growth following 21 days of treatment (treatment from day 28 to day 49)” value is recorded as 116% (P < 0.001). For the same compound, the “% tumour regression following 21 days of treatment (day 28 to day 49)” value in test [1] (restatement of inhibition above 100% as regression, day 49) is “(i.e. 16% tumour regression)”. Besides, the “Number of tumours regressing after 31 days of treatment (treatment from day 28 to day 59)” value in test [1] is reported as 6/9. In addition, the “% Inhibition of Tumour Growth at Day 14” value in test [2] worked out at 38%.
